Laboratory results taken from PubChem BioAssay AID2060610 (Molecular Pharmacology Branch, DTP, NCI, 2025).
Where “and” joins values, the source holds several entries; their conditions need not be identical. Equal entries are not always repeated. Blank lines part the entries; values can stand above or below the compound they belong to.

Tested on: 616215-338-R-J1-PDC complex spheroids, viability % test/control
Assay: Anticancer human tumor 616215-338-R-J1-PDC patient-derived colon adenocarcinoma cell line growth inhibition [CLK]
Conditions: for viability, T/C: stronger effect = lower value
Text: A high-throughput screen of multi-cell type tumor spheroids was designed to identify active combinations of […] and targeted small molecules. Complex spheroids include a stromal component modeled by human endothelial cells (HUVEC) and fibroblasts modeled by human mesenchymal stem cells (MSCs). The concentration ranges selected for each drug and investigational agent were based upon clinically achievable concentrations if the clinical Cmax of the agent was known.
Compounds. The drugs and investigational agents: cirtuvivint (SM08502; NSC835563), CC-671 (NSC850746), vemurafenib (NSC761431), tapotoclax (NSC804041), sotorasib (NSC818433), adagrasib (NSC831453), MRTX-1133 (NSC836407), BAY2416964 (NSC825713), copanlisib (NSC816437), inavolisib (NSC800729), abemaciclib (NSC768073), osimertinib (NSC779217), entinostat (NSC756642), eltanexor (KPT-8602, NSC794443), venetoclax (NSC766270), ceralasertib (NSC777638), bortezomib (NSC756655), olaparib (NSC753686), talazoparib (NSC767125), alisertib (NSC759677), peposertib (NSC802822), gemcitabine (NSC613327), 5-fluorouracil (NSC19893), SN-38 (NSC673596), oxaliplatin (NSC266046), paclitaxel (NSC125973), and doxorubicin (NSC123127), were obtained from the National Cancer Institute (NCI) Developmental Therapeutics Program Chemical Repository. The FDA-approved anticancer drug set is available from the Developmental Therapeutics Program at https://dtp.cancer.gov/organization/dscb/obtaining/available plates.htm. […] The stock solutions were prepared in dimethyl sulfoxide (DMSO, Sigma-Aldrich, St. Louis, MO, cat. D2650), except for the platinum complexes which were prepared in saline (Quality Biological, Gaithersburg, MD, cat. 114-055-101), at 800-fold the tested concentration and stored at -70 degrees C prior to their use. All drugs and investigational agents were tested over a range starting from a high concentration at or near the clinical Cmax and decreasing in half-log increments. If the clinical Cmax for an agent had not been determined, the highest concentration tested was 10 microM.
Cell Culture. All cells were maintained in an incubator at 37 degrees C and 5% CO2 with 95% humidity. The PDC lines were cultured according to standard operating procedures established by the NCI PDMR. Briefly, all PDCs were thawed and cultured in Matrigel-coated flasks prepared with a working solution of 1X Ham's F-12 nutrient mix, without supplementation (Invitrogen, Waltham, MA, cat. 11765054), 100 U/mL penicillin-streptomycin (Invitrogen, cat. 15140122), and 2.5% Matrigel (Corning Inc., Corning, NY, cat. 354248) for the first three passages. The 947758-054-R-J2-PDC line was cultured in 6B/Colon 1A media, which includes advanced DMEM/F-12 (Thermo Fisher Scientific, cat. 12634028), 10 mM HEPES (Thermo Fisher Scientific, cat. 15630080), 1X GlutaMAX supplement (Thermo Fisher Scientific, cat. 35050061), 0.1 mg/mL primocin (InvivoGen, cat. ant-pm-2), 10% defined fetal bovine serum, heat inactivated (HyClone Laboratories Inc., cat. SH30070.03HI), 1.25 mM N-Acetyl-L-cysteine (Sigma-Aldrich, cat. A9165), 10 mM nicotinamide (Sigma-Aldrich, cat. N0636), 1X B-27 supplement (Thermo Fisher Scientific, cat. 17504044), 1X N-2 supplement (Thermo Fisher Scientific, cat. 17502048), and 10 microM Y-27632 dihydrochloride (Tocris Bioscience, cat. 1254). The 876862-298-R-J1-PDC was cultured in 6E media, which includes all 6B/Colon 1A media components plus 50% L-WRN conditioned media (ATCC, cat. CRL-3276), 50 ng/mL recombinant human EGF recombinant protein (hEGF; Thermo Fisher Scientific, cat. PHG0311), 10 ng/mL recombinant human fibroblast growth factor 10 (hGFG-10; PeproTech, cat. 100-26), 1 ng/mL recombinant human fibroblast growth factor 2 (hFGF-2; PeproTech, cat. 100-18B), and 1 µM prostaglandin E2 (PGE2; Tocris, cat. 2296). The 227483-062-R1-J1-PDC line was cultured in Panc media, containing all 6E components except hFGF-2, with the addition of 500 nM SB-431542 (Selleckchem, cat. S1067) and 10 nM gastrin (Tocris, cat. 3006). […]

[1] = curve of first compound, second compound 0.0316 µM
[2] = curve of first compound, second compound 0.1 µM
[3] = curve of first compound, second compound 0.316 µM
[4] = curve of first compound, second compound 1 µM
[5] = curve of first compound, second compound 3.16 µM
[6] = curve of first compound, second compound 10 µM
[7] = second compound 0.0316 µM, first compound 0.0316 µM
[8] = second compound 0.0316 µM, first compound 0.1 µM
[9] = second compound 0.0316 µM, first compound 0.316 µM
[10] = second compound 0.0316 µM, first compound 1 µM
[11] = second compound 0.1 µM, first compound 0.0316 µM
[12] = second compound 0.1 µM, first compound 0.1 µM
[13] = second compound 0.1 µM, first compound 0.316 µM
[14] = second compound 0.1 µM, first compound 1 µM
[15] = second compound 0.316 µM, first compound 0.0316 µM
[16] = second compound 0.316 µM, first compound 0.1 µM
[17] = second compound 0.316 µM, first compound 0.316 µM
[18] = second compound 0.316 µM, first compound 1 µM
[19] = second compound 1 µM, first compound 0.0316 µM
[20] = second compound 1 µM, first compound 0.1 µM
[21] = second compound 1 µM, first compound 0.316 µM
[22] = second compound 1 µM, first compound 1 µM
[23] = second compound 3.16 µM, first compound 0.0316 µM
[24] = second compound 3.16 µM, first compound 0.1 µM
[25] = second compound 3.16 µM, first compound 0.316 µM
[26] = second compound 3.16 µM, first compound 1 µM
[27] = second compound 10 µM, first compound 0.0316 µM
[28] = second compound 10 µM, first compound 0.1 µM
[29] = second compound 10 µM, first compound 0.316 µM
[30] = second compound 10 µM, first compound 1 µM
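Also: spheroids exposed to agents for 7 days.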
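For viability, T/C in this document: 100% = DMSO vehicle wells.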

IC50 [1]: 208 nM
IC50 [2]: 45.9 nM
IC50 [3]: < 3.16 nM
IC50 [4]: < 3.16 nM
IC50 [5]: < 3.16 nM
IC50 [6]: < 3.16 nM
SMILES: COc1c(OCCCN2CCOCC2)ccc2c3n(c(=NC(=O)c4cnc(N)nc4)nc12)CCN3 + CNC(=O)c1ccc(Nc2nc(OC3CCCC3)c3c(-c4ccc5nc(C)oc5c4)c[nH]c3n2)c(OC)c1
viability, T/C (second compound 0.0316 µM, first compound 0.00316 µM): 92.4%
viability, T/C (second compound 0.0316 µM, first compound 0.01 µM): 94.7%
viability, T/C [7]: 115%
viability, T/C [8]: 69.1%
viability, T/C [9]: 45.7%
viability, T/C [10]: 32.3%
viability, T/C (second compound 0.1 µM, first compound 0.00316 µM): 62.4%
viability, T/C (second compound 0.1 µM, first compound 0.01 µM): 61.5%
viability, T/C [11]: 57.7%
viability, T/C [12]: 34%
viability, T/C [13]: 26.6%
viability, T/C [14]: 26.1%
viability, T/C (second compound 0.316 µM, first compound 0.00316 µM): 41.4%
viability, T/C (second compound 0.316 µM, first compound 0.01 µM): 39.3%
viability, T/C [15]: 26.5%
viability, T/C [16]: 20.6%
viability, T/C [17]: 14.5%
viability, T/C [18]: 12.5%
viability, T/C (second compound 1 µM, first compound 0.00316 µM): 32.9%
viability, T/C (second compound 1 µM, first compound 0.01 µM): 30.1%
viability, T/C [19]: 21.2%
viability, T/C [20]: 13.1%
viability, T/C [21]: 9.29%
viability, T/C [22]: 9.49%
viability, T/C (second compound 3.16 µM, first compound 0.00316 µM): 35.6%
viability, T/C (second compound 3.16 µM, first compound 0.01 µM): 31.1%
viability, T/C [23]: 21.4%
viability, T/C [24]: 12%
viability, T/C [25]: 9.19%
viability, T/C [26]: 8.84%
viability, T/C (second compound 10 µM, first compound 0.00316 µM): 35.3%
viability, T/C (second compound 10 µM, first compound 0.01 µM): 29.4%
viability, T/C [27]: 19.2%
viability, T/C [28]: 11.1%
viability, T/C [29]: 10.4%
viability, T/C [30]: 7.75%

IC50 [1]: > 10000 nM
IC50 [2]: 416 nM
IC50 [3]: < 31.6 nM
IC50 [4]: < 31.6 nM
IC50 [5]: < 31.6 nM
IC50 [6]: < 31.6 nM
SMILES: CC1(C)CCC(CN2CCN(c3ccc(C(=O)NS(=O)(=O)c4ccc(NCC5CCOCC5)c([N+](=O)[O-])c4)c(Oc4cnc5[nH]ccc5c4)c3)CC2)=C(c2ccc(Cl)cc2)C1 + CNC(=O)c1ccc(Nc2nc(OC3CCCC3)c3c(-c4ccc5nc(C)oc5c4)c[nH]c3n2)c(OC)c1
viability, T/C [7]: 101%
viability, T/C [8]: 99.1%
viability, T/C [9]: 92.8%
viability, T/C [10]: 100%
viability, T/C (second compound 0.0316 µM, first compound 3.16 µM): 80%
viability, T/C (second compound 0.0316 µM, first compound 10 µM): 91.5%
viability, T/C [11]: 55.3%
viability, T/C [12]: 50.6%
viability, T/C [13]: 50.9%
viability, T/C [14]: 42.8%
viability, T/C (second compound 0.1 µM, first compound 3.16 µM): 18.5%
viability, T/C (second compound 0.1 µM, first compound 10 µM): 56.7%
viability, T/C [15]: 46.6%
viability, T/C [16]: 49%
viability, T/C [17]: 45.4%
viability, T/C [18]: 33.9%
viability, T/C (second compound 0.316 µM, first compound 3.16 µM): 21.2%
viability, T/C (second compound 0.316 µM, first compound 10 µM): 45.7%
viability, T/C [19]: 50.9%
viability, T/C [20]: 48.2%
viability, T/C [21]: 46.2%
viability, T/C [22]: 35.9%
viability, T/C (second compound 1 µM, first compound 3.16 µM): 20.5%
viability, T/C (second compound 1 µM, first compound 10 µM): 48.9%
viability, T/C [23]: 38.8%
viability, T/C [24]: 42.5%
viability, T/C [25]: 44.6%
viability, T/C [26]: 33.3%
viability, T/C (second compound 3.16 µM, first compound 3.16 µM): 24.8%
viability, T/C (second compound 3.16 µM, first compound 10 µM): 50.7%
viability, T/C [27]: 36.3%
viability, T/C [28]: 42%
viability, T/C [29]: 41.7%
viability, T/C [30]: 41%
viability, T/C (second compound 10 µM, first compound 3.16 µM): 27.2%
viability, T/C (second compound 10 µM, first compound 10 µM): 41.7%

IC50 (curve of compound): 5.61 nM and 5.28 nM
SMILES: CC(C)CC(NC(=O)C(Cc1ccccc1)NC(=O)c1cnccn1)B(O)O (stereo unspecified)
viability, T/C (compound 0.000949 µM): 109% and 107%
viability, T/C (compound 0.003 µM): 109% and 97.9%
viability, T/C (compound 0.00949 µM): 0.2% and 0.21%
viability, T/C (compound 0.03 µM): 0.18% and 0.25%
viability, T/C (compound 0.0949 µM): 0.12% and 0.23%
viability, T/C (compound 0.3 µM): 0.85% and 0.21%
